From patent US11826351B2, “Compounds useful as kinase inhibitors” (Loxo Oncology, Inc., priority 2015, dated 2023)
pIC50: −log10 of the molar value. Read-outs that look alike come from different tables or passages of the source.

Tests used:
[1] = target: T1, Recombinant BTK^WT kinase (Homo sapiens, UniProt Q06187); assay: BTK WT binding affinity (LanthaScreen TR-FRET); settings: Kinase Tracer 236, 5 h incubation
T1 construct: purchased Invitrogen
How it was run: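 Tracer-displacement TR-FRET: 2.5 nM recombinant BTK^WT, 2 nM Eu anti-His antibody and 15 nM Kinase Tracer 236 incubated with varying inhibitor concentrations for 5 h in Kinase Buffer A. Signal read at 340 nm excitation, 615/665 nm emission; IC50 from variable-slope log[inhibitor]–response fit.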

[2] = target: T2, Recombinant BTK^C481S kinase (Homo sapiens, UniProt Q06187, C481S); assay: BTK C481S binding affinity (LanthaScreen TR-FRET); settings: Kinase Tracer 236, 5 h incubation
T2 construct: purchased SignalChem
T2 sequence (Q06187 whole entry C481S): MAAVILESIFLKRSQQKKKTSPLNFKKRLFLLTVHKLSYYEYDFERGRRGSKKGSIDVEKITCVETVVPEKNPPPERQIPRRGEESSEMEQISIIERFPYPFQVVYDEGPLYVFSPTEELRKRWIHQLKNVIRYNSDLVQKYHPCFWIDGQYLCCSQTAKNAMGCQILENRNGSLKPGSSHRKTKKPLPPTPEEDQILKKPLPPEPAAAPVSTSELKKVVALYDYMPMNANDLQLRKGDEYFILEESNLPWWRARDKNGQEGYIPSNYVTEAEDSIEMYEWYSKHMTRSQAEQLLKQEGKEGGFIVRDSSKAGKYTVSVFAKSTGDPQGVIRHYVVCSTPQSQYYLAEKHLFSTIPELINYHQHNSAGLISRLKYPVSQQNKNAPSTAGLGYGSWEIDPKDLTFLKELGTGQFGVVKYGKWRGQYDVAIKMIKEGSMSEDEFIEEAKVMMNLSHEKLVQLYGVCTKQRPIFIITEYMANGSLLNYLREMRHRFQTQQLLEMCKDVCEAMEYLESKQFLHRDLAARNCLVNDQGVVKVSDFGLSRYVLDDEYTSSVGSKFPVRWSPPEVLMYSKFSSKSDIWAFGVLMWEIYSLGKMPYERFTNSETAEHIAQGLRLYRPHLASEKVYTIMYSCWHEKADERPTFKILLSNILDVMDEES
How it was run: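 BTK C481S tracer-displacement TR-FRET: 5 nM His-tagged kinase, 2 nM Eu anti-His antibody and 30 nM Kinase Tracer 236 incubated with titrated inhibitor for 5 h in Kinase Buffer A. Read at 340 nm excitation, 615/665 nm emission; IC50 from variable-slope log[inhibitor]–response fit.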

Recombinant EGFR = target: T3, Recombinant EGFR (Homo sapiens, UniProt P00533); assay: EGFR binding affinity (LanthaScreen TR-FRET); settings: Kinase Tracer 199, 5 h incubation
T3 construct: purchased Invitrogen
T3 sequence (P00533 25-1210): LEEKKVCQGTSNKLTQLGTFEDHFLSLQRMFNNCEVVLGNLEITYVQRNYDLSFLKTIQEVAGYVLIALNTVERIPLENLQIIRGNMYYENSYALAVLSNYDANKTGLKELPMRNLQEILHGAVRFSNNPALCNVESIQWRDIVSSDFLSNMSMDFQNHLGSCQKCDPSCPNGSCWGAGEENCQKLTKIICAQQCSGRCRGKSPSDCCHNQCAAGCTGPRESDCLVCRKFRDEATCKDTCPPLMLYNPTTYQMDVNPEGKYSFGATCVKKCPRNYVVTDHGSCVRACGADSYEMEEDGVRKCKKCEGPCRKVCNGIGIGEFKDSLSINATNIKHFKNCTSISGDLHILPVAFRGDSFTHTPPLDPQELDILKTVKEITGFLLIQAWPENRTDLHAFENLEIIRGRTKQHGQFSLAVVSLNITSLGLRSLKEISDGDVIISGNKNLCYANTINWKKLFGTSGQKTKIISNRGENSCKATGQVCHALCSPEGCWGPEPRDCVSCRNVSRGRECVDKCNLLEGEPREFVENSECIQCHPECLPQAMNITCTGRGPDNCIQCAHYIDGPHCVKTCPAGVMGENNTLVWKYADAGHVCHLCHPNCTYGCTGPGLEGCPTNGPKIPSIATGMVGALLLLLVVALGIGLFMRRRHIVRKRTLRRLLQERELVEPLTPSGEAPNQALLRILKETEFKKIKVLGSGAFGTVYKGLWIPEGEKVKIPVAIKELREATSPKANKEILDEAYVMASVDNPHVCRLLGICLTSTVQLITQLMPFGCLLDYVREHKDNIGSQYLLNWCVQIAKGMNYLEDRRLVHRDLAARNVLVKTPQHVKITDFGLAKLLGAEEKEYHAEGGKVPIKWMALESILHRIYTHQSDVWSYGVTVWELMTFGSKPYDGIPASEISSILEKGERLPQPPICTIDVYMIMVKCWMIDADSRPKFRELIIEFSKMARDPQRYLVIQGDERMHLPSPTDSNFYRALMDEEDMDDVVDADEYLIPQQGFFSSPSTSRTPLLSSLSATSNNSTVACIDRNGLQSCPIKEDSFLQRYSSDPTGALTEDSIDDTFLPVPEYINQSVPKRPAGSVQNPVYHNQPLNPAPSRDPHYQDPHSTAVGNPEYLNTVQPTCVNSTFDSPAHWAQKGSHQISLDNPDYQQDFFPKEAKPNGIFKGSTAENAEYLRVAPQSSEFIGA
How it was run: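 TR-FRET binding (LanthaScreen) with recombinant EGFR; signal measured across a compound concentration range. IC50 obtained by fitting RFU against log[inhibitor] to a variable-slope model.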

[3] = test system: OCI-Ly10 human DLBCL cells; assay: OCI-Ly10 anti-proliferative activity (Resazurin); type: cell-based; settings: read-out: Proliferation Assay OCI-Ly10-20% FBS
How it was run: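 OCI-Ly10 human DLBCL cells, whose growth depends on NFκB signalling, were seeded at 7.5×10^3 cells per well in 96-well plates with a range of compound concentrations and kept at 37° C for 72 h. Resazurin was then added, and after 5 h fluorescence was read at 590 nm.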

[4] = Homo sapiens, OCI-Ly10, 72 h, OCI-Ly10 cells, 72 h compound treatment, Resazurin
[5] = OCI-Ly10 cells, 72 h compound treatment, Resazurin

T1 sequence (Q06187 whole entry): as the sequence (Q06187 whole entry C481S) above, with S481C counted along it

Row | Structure (SMILES) | pIC50 [1] | pIC50 [2] | pIC50 (Recombinant EGFR) | pIC50 [3, 4] | pIC50 [3, 5] | pIC50 ([3]; Homo sapiens, OCI-Ly10, 72 h)
1 | COc1ccccc1C(=O)NCc1ccc(-c2nn(C3COC(C)(C)C3)c(N)c2C(N)=O)cc1 (stereo not shown) [Example 147, 5-amino-1-(5,5-dimethyltetrahydrofuran-3-yl)-3-[4-[[(2-methoxybenzoyl)amino]methyl]phenyl]pyrazole-4-carboxamide] | > 8.00 | > 8.00 | 5.00 to 6.00 | 7.00 to 8.00 |  | 
2 | COc1ccccc1C(=O)NCc1ccc(-c2nn([C@H]3CC[C@H](F)C3)c(N)c2C(N)=O)cc1 (relative stereo) [Example 41, 5-amino-1-[(1S*,3S*)-3-fluorocyclopentyl]-3-[4-[[(2-methoxybenzoyl)amino]methyl]phenyl]pyrazole-4-carboxamide] | > 8.00 | > 8.00 | 6.00 to 7.00 | 7.00 to 8.00 |  | 
3 | COc1ccccc1C(=O)NCc1ccc(-c2nn(-c3ccncc3)c(N)c2C(N)=O)cc1 [Example 54, 5-amino-3-[4-[[(2-methoxybenzoyl)amino]methyl]phenyl]-1-(4-pyridyl)pyrazole-4-carboxamide] | 7.00 to 8.00 | > 8.00 | 5.00 to 6.00 | 6.00 to 7.00 |  | 
4 | COc1ccccc1C(=O)NCc1ccc(-c2nn(C3CCOCC3C)c(N)c2C(N)=O)cc1 (mixture of isomers) [Example 86, 5-amino-3-[4-[[(2-methoxybenzoyl)amino]methyl]phenyl]-1-(3-methyltetrahydropyran-4-yl)pyrazole-4-carboxamide] | > 8.00 | > 8.00 | 6.00 to 7.00 | 6.00 to 7.00 |  | 
5 | COc1ccccc1C(=O)NCc1ccc(-c2nn(C3CCC(C(=O)N(C)C)CC3)c(N)c2C(N)=O)cc1 (single isomer, unassigned) [Example 57b, 5-amino-1-[4-(dimethylcarbamoyl)cyclohexyl]-3-[4-[[(2-methoxybenzoyl)amino]methyl]phenyl]pyrazole-4-carboxamide] | > 8.00 | > 8.00 | 6.00 to 7.00 |  | 6.00 to 7.00 | 
6 | CCOC(=O)C1CCCC(n2nc(-c3ccc(CNC(=O)c4ccccc4OC)cc3)c(C(N)=O)c2N)C1 (single isomer, unassigned) [Example 55, ethyl 3-[5-amino-4-carbamoyl-3-[4-[[(2-methoxybenzoyl)amino]methyl]phenyl]pyrazol-1-yl]cyclohexanecarboxylate] | > 8.00 | > 8.00 | 6.00 to 7.00 |  | 7.00 to 8.00 | 
7 | COc1ccc(F)cc1C(=O)NCc1cc(F)c(-c2nn(C(C)C(F)(F)F)c(N)c2C(N)=O)cc1F (stereo not shown) [Example 168, 5-amino-3-[2,5-difluoro-4-[[(5-fluoro-2-methoxy-benzoyl)amino]methyl]phenyl]-1-(2,2,2-trifluoro-1-methyl-ethyl)pyrazole-4-carboxamide] | 7.00 to 8.00 | > 8.00 | 5.00 to 6.00 |  |  | 7.00 to 8.00

Further lines, with some results ahead:

Row | pIC50 [1] | pIC50 [2] | pIC50 (Recombinant EGFR) | pIC50 [3, 4] | pIC50 [3, 5] | Structure (SMILES) | pIC50 ([3]; Homo sapiens, OCI-Ly10, 72 h)
8 | 7.00 to 8.00 | > 8.00 | 5.00 to 6.00 | < 5.00 |  | COc1ccccc1C(=O)NCc1ccc(-c2nn(CCc3nnn[nH]3)c(N)c2C(N)=O)cc1 [Example 25, 5-Amino-3-[4-[[(2-methoxybenzoyl)amino]methyl]phenyl]-1-[2-(1H-tetrazol-5-yl)ethyl]pyrazole-4-carboxamide] | 
9 | > 8.00 | > 8.00 | 6.00 to 7.00 | 7.00 to 8.00 |  | COc1ccccc1C(=O)NCc1ccc(-c2nn(C3CCC(O)(C(F)(F)F)CC3)c(N)c2C(N)=O)cc1 (stereo not shown) [Example 65, 5-amino-1-[4-hydroxy-4-(trifluoromethyl)cyclohexyl]-3-[4-[[(2-methoxybenzoyl)amino]methyl]phenyl]pyrazole-4-carboxamide] | 
10 | > 8.00 | > 8.00 | 6.00 to 7.00 | 6.00 to 7.00 |  | COc1ccccc1C(=O)NCc1ccc(-c2nn(CC(F)(F)F)c(N)c2C(N)=O)cc1 [Example 21, 5-Amino-3-[4-[[(2-methoxybenzoyl)amino]methyl]phenyl]-1-(2,2,2-trifluoroethyl)pyrazole-4-carboxamide] | 
